Where two headings read alike, the source gives them in different places.
Tests used:
[1] = biological target: O-GlcNAcase (Rattus norvegicus (Rat), UniProt Q8VIJ5); assay: Cell-based ELISA for cellular activity of O-GlcNAcase inhibitors (O-GlcNAcylated protein, RL-2 antibody)
Text: Assay for Determination of Cellular Activity for Compounds that Inhibit O-GlcNAcase Activity
Inhibition of O-GlcNAcase, which removes O-GlcNAc from cellular proteins, results in an increase in the level of O-GlcNAcylated protein in cells. An increase in O-GlcNAcylated protein can be measured by an antibody, such as RL-2, that binds to O-GlcNAcylated protein. The amount of O-GlcNAcylated protein:RL2 antibody interaction can be measured by enzyme linked immunosorbant assay (ELISA) procedures.
A variety of tissue culture cell lines, expressing endogenous levels of O-GlcNAcase, can be utilized; examples include rat PC-12, and human U-87, or SK—N—SH cells. Rat PC-12 cells were plated in 96-well plates with approximately 10,000 cells/well. Compounds to be tested were dissolved in DMSO, either 2 or 10 mM stock solution, and then diluted with DMSO and water in a two-step process using a Tecan workstation. […] If desired, the total protein concentration of samples was determined using 20 μL of the sample using the BCA method. […]
The values for a four parameter logistic curve fit of the data were determined, with the inflection point of the curve being the potency value for the test compound.

[2] = biological target: human O-GlcNAcase (Homo sapiens (Human), UniProt O60502); assay: Fluorescence-based assay for determination of KI values for inhibition of O-GlcNAcase activity; type: biochemical
Sequence of human O-GlcNAcase (O60502 whole entry): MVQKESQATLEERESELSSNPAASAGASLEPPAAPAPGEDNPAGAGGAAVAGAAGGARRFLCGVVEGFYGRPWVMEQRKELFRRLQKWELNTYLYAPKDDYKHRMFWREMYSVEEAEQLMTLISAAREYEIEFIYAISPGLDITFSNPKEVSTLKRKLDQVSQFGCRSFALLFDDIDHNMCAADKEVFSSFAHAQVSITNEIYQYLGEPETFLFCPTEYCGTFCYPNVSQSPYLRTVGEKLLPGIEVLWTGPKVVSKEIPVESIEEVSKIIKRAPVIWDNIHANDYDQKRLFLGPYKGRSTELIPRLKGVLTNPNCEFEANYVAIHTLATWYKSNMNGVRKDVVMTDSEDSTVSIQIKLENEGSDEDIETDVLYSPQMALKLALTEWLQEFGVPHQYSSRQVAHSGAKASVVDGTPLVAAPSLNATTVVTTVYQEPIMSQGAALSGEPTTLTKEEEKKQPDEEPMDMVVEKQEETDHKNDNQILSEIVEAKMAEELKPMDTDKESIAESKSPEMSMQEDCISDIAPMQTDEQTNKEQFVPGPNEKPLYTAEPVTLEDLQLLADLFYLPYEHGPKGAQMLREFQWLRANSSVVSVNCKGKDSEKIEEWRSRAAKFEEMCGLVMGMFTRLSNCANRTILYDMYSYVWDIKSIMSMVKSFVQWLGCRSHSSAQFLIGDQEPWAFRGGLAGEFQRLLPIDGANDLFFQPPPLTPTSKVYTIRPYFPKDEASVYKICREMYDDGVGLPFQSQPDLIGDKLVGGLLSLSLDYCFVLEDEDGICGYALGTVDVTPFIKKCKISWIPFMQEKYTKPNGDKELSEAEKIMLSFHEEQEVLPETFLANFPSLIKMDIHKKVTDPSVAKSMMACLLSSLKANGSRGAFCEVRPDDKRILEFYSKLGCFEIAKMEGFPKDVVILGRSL
Method: Assay for Determination of KI Values for Inhibition of O-GlcNAcase Activity
Experimental Procedure for Kinetic Analyses:
Enzymatic reactions were carried out in a reaction containing 50 mM NaH2PO4, 100 mM NaCl and 0.1% BSA (pH 7.0) using 2 mM 4-Methylumbelliferyl N-acetyl-β-D-glucosaminide dihydrate (Sigma M2133) dissolved in ddH2O, as a substrate. The amount of purified human O-GlcNAcase enzyme used in the reaction was 0.7 nM. Test compound of varying concentrations was added to the enzyme prior to initiation of the reaction. The reaction was performed at room temperature in a 96-well plate and was initiated with the addition of substrate. […] The slope of product production was determined for each concentration of compound tested and plotted, using standard curve fitting algorithms for sigmoidal dose response curves. The values for a four parameter logistic curve fit of the data were determined.

[3] = purified human O-GlcNAcase 0.7 nM, 2 mM 4-Methylumbelliferyl N-acetyl-β-D-glucosaminide, pH 7.0, Cheng-Prusoff, read-out: Fluorescence-based hOGA Ki

Sequence of O-GlcNAcase (Q8VIJ5 whole entry): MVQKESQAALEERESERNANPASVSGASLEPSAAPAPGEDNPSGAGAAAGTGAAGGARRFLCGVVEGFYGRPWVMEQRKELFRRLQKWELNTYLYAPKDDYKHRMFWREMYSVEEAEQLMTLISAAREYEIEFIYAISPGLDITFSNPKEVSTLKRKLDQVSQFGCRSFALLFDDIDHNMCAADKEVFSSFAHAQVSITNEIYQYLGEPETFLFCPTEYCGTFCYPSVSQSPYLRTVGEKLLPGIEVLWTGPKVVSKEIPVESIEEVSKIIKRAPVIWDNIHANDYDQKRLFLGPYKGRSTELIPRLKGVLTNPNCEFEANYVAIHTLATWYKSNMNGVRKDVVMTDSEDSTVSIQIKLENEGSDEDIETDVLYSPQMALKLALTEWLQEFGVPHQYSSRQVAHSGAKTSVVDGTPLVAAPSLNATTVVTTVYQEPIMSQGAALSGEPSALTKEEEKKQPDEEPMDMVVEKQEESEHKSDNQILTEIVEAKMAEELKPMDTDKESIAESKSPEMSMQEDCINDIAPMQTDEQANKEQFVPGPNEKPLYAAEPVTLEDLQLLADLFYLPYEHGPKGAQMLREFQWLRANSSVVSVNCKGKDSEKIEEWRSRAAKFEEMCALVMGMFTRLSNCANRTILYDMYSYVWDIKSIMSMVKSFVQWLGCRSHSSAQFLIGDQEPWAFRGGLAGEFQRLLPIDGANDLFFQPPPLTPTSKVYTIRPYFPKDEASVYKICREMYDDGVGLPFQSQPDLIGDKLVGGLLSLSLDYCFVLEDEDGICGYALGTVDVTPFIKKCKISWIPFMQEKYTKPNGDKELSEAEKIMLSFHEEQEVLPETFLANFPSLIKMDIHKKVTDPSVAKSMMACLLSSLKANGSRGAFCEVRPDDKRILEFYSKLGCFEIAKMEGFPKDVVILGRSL

Structure (SMILES)	Ki [2, 3] [µM]	also measured
OC[C@H]1O[C@@H]2SC(N3CCC3)=N[C@@H]2[C@@H](O)C1O (stereo in doubt) [Example 1, (3aR,5R,6S,7R,7aR)-2-(azetidin-1-yl)-5-(hydroxymethyl)-5,6,7,7a-tetrahydro-3aH-pyrano[3,2-d]thiazole-6,7-diol]	–	EC50 [1]: 0.028 µM; Ki [2]: 0.0033 µM
OC[C@H]1O[C@@H]2SC(N3CC(F)C3)=N[C@@H]2[C@@H](O)[C@@H]1O [Example 3, (3aR,5R,6S,7R,7aR)-2-(3-fluoroazetidin-1-yl)-5-(hydroxymethyl)-5,6,7,7a-tetrahydro-3aH-pyrano[3,2-d]thiazole-6,7-diol]	0.03	–
COC1CN(C2=N[C@@H]3[C@@H](O)[C@H](O)[C@@H](CO)O[C@@H]3S2)C1 [Example 5, (3aR,5R,6S,7R,7aR)-5-(hydroxymethyl)-2-(3-methoxyazetidin-1-yl)-5,6,7,7a-tetrahydro-3aH-pyrano[3,2-d]thiazole-6,7-diol]	0.142	–
CN(C)C(=O)OC[C@H]1O[C@@H]2SC(N3CCC3)=N[C@@H]2[C@@H](O)[C@@H]1O [Example 18, ((3aR,5R,6S,7R,7aR)-2-(azetidin-1-yl)-6,7-dihydroxy-5,6,7,7a-tetrahydro-3aH-pyrano[3,2-d]thiazol-5-yl)methyl dimethylcarbamate]	0.35	–
OC[C@H]1O[C@@H]2SC(N3CCCC3)=N[C@@H]2[C@@H](O)[C@@H]1O [Example 7, (3aR,5R,6S,7R,7aR)-5-(hydroxymethyl)-2-(pyrrolidin-1-yl)-5,6,7,7a-tetrahydro-3aH-pyrano[3,2-d]thiazole-6,7-diol]	0.013	EC50 ([1]; Rat PC-12 cells, 24 h treatment, increase in O-GlcNAcylated protein detected with RL-2 antibody, read-out: Cell-based ELISA EC50): 0.165 µM
OC[C@H]1O[C@@H]2SC(N3CCOCC3)=N[C@@H]2[C@@H](O)[C@@H]1O [Example 14, (3aR,5R,6S,7R,7aR)-5-(hydroxymethyl)-2-morpholino-5,6,7,7a-tetrahydro-3aH-pyrano[3,2-d]thiazole-6,7-diol]	0.289	–
O[C@H]1[C@H](O)[C@@H](CNC2CC2)O[C@@H]2SC(N3CCC3)=N[C@H]12 [Example 16, (3aR,5R,6S,7R,7aR)-2-(azetidin-1-yl)-5-((cyclopropylamino)methyl)-5,6,7,7a-tetrahydro-3aH-pyrano[3,2-d]thiazole-6,7-diol]	0.101	–

— patent US8933040B2, “Selective glycosidase inhibitors and uses thereof” (priority 2010, dated 2015)
